Test results published in patent US20170065564A1, “BIS-CYCLIC GUANIDINE COMPOUND COMPOSITIONS, METHODS OF USE AND TREATMENT THEREOF” (University of South Florida, priority 2014, published 2017).
≈ marks a conversion by molar mass, not a printed value.

Key:
[1] = system: A. baumannii; experiment: Resistance serial passage assay; type: cell-based, Acinetobacter baumannii; conditions: 8 passages, concentration doubled each day
Method: (§1) ESKAPE pathogens were grown overnight in liquid media at 37° C. These cultures were then diluted 1:100 in fresh media, and seeded into a 96-well plate. Lead bis-cyclic guanidines or control agents were added to respective wells at half MIC concentrations. Plates were then incubated for 24 hours at 37° C., with bacteria removed from these cultures on the following day, to inoculate fresh media (1:100 dilution) containing compounds at a 2-fold higher concentrations. These were then grown overnight, and the procedure repeated for a total of eight days. […] Each experiment was performed in triplicate, yielding identical results.

[2] = system: K. pneumoniae; experiment: Resistance serial passage assay; type: cell-based, Klebsiella pneumoniae; conditions: 8 passages, concentration doubled each day
Method: as §1

[3] = system: Klebsiella pneumoniae; experiment: Minimal bactericidal concentration (MBC) assay; type: cell-based; conditions: Klebsiella pneumoniae, purified compound; read-out: MBC90
Method: (§2) Briefly, compound was washed by centrifugation and serial dilution, before plating on Tryptic Soy Agar (TSA). Plates were incubated for 24 hours at 37° C. and cell viability assessed by determining CFU/ml at each concentration, for every compound. Percent recovery was then determined compared to CFU/ml from no drug controls. All concentrations and controls were tested using three biological replicates, alongside two technical replicates for each data point.

[4] = system: Staphylococcus aureus; experiment: Minimal bactericidal concentration (MBC) assay; type: cell-based; conditions: Staphylococcus aureus, purified compound; read-out: MBC90
Method: as §2

[5] = system: Enterobacter cloacae; experiment: Minimal bactericidal concentration (MBC) assay; type: cell-based; conditions: Enterobacter cloacae; purified compound; read-out: MBC90
Method: as §2

[6] = system: Pseudomonas aeruginosa; experiment: Minimal bactericidal concentration (MBC) assay; type: cell-based; conditions: Pseudomonas aeruginosa; purified compound; read-out: MBC90
Method: as §2

[7] = system: Enterococcus faecium; experiment: Minimal bactericidal concentration (MBC) assay; type: cell-based; conditions: Enterococcus faecium, purified compound; read-out: MBC90
Method: as §2

[8] = system: Acinetobacter baumannii; experiment: Minimal bactericidal concentration (MBC) assay; type: cell-based; conditions: Acinetobacter baumannii, purified compound; read-out: MBC90
Method: as §2

[9] = system: Enterobacter cloacae biofilm; experiment: Minimum biofilm eradication concentration (MBEC) assay; type: cell-based; conditions: 24 h biofilm, purified compound
Method: (§3) The minimum biofilm eradication concentration (MBEC) was determined in 96-well microtiter plates as follows. Broth cultures of ESKAPE strains were grown using the conditions described above. Biofilms for each of the ESKAPE pathogens were generated from these as we have previously described for S. aureus, however human serum was not used for non-staphylococcal organisms.^44 46 For all organisms, biofilms were developed by standardizing an overnight culture into fresh media to an OD600 of 0.5 and adding 150 μl into each well of a 96-well microtiter plate. […] These cultures were incubated at 37° C. overnight alongside no drug controls. After 24 hours, the media was removed from wells and the biofilm resuspended in phosphate buffered saline (PBS). Cultures were mixed by vigorous pipetting, before being serially diluted in PBS, and plated in duplicate on relevant agar. Plates were incubated at 37° C. for 24 hours, and CFUs determined by enumeration. Each analysis was performed using three technical replicates, and antibiofilm activity was determined by comparing treated to untreated samples.

[10] = system: Staphylococcus aureus biofilm; experiment: as above; type: cell-based; conditions: 24 h biofilm, purified compound
Method: as §3

[11] = system: Klebsiella pneumoniae biofilm; experiment: as above; type: cell-based; conditions: 24 h biofilm, purified compound
Method: as §3

[12] = system: Acinetobacter baumannii biofilm; experiment: as above; type: cell-based; conditions: 24 h biofilm, purified compound
Method: as §3

[13] = system: Acinetobacter baumannii; experiment: MIC micro broth dilution assay; type: cell-based; conditions: for MIC: Acinetobacter baumannii
Summary of the method: (§4)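 Strains were multidrug-resistant clinical isolates grown in LB (Gram-negative) or TSB (Gram-positive), diluted 1:1,000 before compound addition.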

[14] = system: Pseudomonas aeruginosa; experiment: MIC micro broth dilution assay; type: cell-based; conditions: for MIC: Pseudomonas aeruginosa
Method: For this study we used a representative panel of multi-drug resistant clinical ESKAPE pathogen isolates (Supplemental Table S6).^42 43 3a, 44 45 Gram-positive organisms were grown in tryptic soy broth media (TSB), whilst Gram-negative organisms were grown in lysogeny Broth (LB), as described by us previously. ^43 MIC and MBC determination assays.
Broth cultures of ESKAPE strains were grown overnight before being diluted 1 in 1,000 in fresh media. Sterile 96-well plates were loaded with culture and compounds (in DMF) were added at decreasing concentrations to equal a total volume of 200 μl per well. Care was taken to not add more than 2.0% DMF to any well. Plates were then incubated at 37° C., and MICs determined after 24 hours by visual inspection for a lack of turbidity in wells. All assays were performed in triplicate with identical results obtained. For both the scaffold ranking and positional scanning samples, relative broad-spectrum activity was determined via stacked scores: […]

[15] = system: Klebsiella pneumoniae; experiment: MIC micro broth dilution assay; type: cell-based; conditions: for MIC: Klebsiella pneumoniae
Summary of the method: as §4

## CCCCCCCN1C(=N)N(CCCC[C@H]2CNC(=N)N2CCCCC2CCCCC2)C[C@@H]1CC1CCCCC1 [Compound 16]
[1]
  increase in MIC after serial passage: 8 fold
[2]
  increase in MIC after serial passage: 8 fold
[3]
  MBC: 4.45 µM (≈ 2.48 µg/mL)
[4]
  MBC: 3.88 µM (≈ 2.16 µg/mL)
[5]
  MBC: 9.55 µM (≈ 5.32 µg/mL)
[6]
  MBC: 3.99 µM (≈ 2.22 µg/mL)
[7]
  MBC: 2.87 µM (≈ 1.6 µg/mL)
[8]
  MBC: 2.77 µM (≈ 1.54 µg/mL)
[9]
  MBEC50: 12.68 µM
[10]
  MBEC50: 7.58 µM
[11]
  MBEC50: 6.28 µM
[12]
  MBEC50: 14.13 µM
[13]; A. baumannii
  stacked score activity, 100/MIC, A: 33
[13]; A. baumannii isolate 1403
  MIC: 2 µM (≈ 1.11 µg/mL)
[13]; A. baumannii isolate 1643
  MIC: 2 µM (≈ 1.11 µg/mL)
[13]; A. baumannii isolate 1644
  MIC: 2 µM (≈ 1.11 µg/mL)
[13]; A. baumannii isolate 1647
  MIC: 2 µM (≈ 1.11 µg/mL)
[13]; A. baumannii isolate 1648
  MIC: 2 µM (≈ 1.11 µg/mL)
[13]; A. baumannii isolate 1649
  MIC: 2 µM (≈ 1.11 µg/mL)
[13]; A. baumannii isolate 1650
  MIC: 2 µM (≈ 1.11 µg/mL)
[13]; A. baumannii isolate 1651
  MIC: 2 µM (≈ 1.11 µg/mL)
[13]; A. baumannii isolate 1653
  MIC: 2 µM (≈ 1.11 µg/mL)
[13]; A. baumannii isolate 1654
  MIC: 2 µM (≈ 1.11 µg/mL)
[13]; purified compound, Table 1
  MIC: 1.62 µM (≈ 0.902 µg/mL)
[14]; P. aeruginosa isolate 1414
  MIC: 3 µM (≈ 1.67 µg/mL)
[14]; P. aeruginosa isolate 1415
  MIC: 3 µM (≈ 1.67 µg/mL)
[14]; P. aeruginosa isolate 1416
  MIC: 2 µM (≈ 1.11 µg/mL)
[14]; P. aeruginosa isolate 1417
  MIC: 3 µM (≈ 1.67 µg/mL)
[14]; P. aeruginosa isolate 1418
  MIC: 7 µM (≈ 3.9 µg/mL)
[14]; P. aeruginosa isolate 1419
  MIC: 3 µM (≈ 1.67 µg/mL)
[14]; P. aeruginosa isolate 1420
  MIC: 3 µM (≈ 1.67 µg/mL)
[14]; P. aeruginosa isolate 1421
  MIC: 3 µM (≈ 1.67 µg/mL)
[14]; P. aeruginosa isolate 1422
  MIC: 3 µM (≈ 1.67 µg/mL)
[14]; P. aeruginosa isolate 1423
  MIC: 2 µM (≈ 1.11 µg/mL)
[14]; purified compound, Table 1
  MIC: 1.62 µM (≈ 0.902 µg/mL)
[14]; panel of P. aeruginosa clinical isolates
  concentration inhibiting 90% of isolates: 5 µM
[15]; K. pneumoniae
  stacked score activity, 100/MIC, K: 20
[15]; K. pneumoniae isolate 1408
  MIC: 2 µM (≈ 1.11 µg/mL)
[15]; K. pneumoniae isolate 1409
  MIC: 3 µM (≈ 1.67 µg/mL)
[15]; K. pneumoniae isolate 1410
  MIC: 3 µM (≈ 1.67 µg/mL)
[15]; K. pneumoniae isolate 1411
  MIC: 2 µM (≈ 1.11 µg/mL)
[15]; K. pneumoniae isolate 1412
  MIC: 3 µM (≈ 1.67 µg/mL)
[15]; K. pneumoniae isolate 1413
  MIC: 3 µM (≈ 1.67 µg/mL)
[15]; K. pneumoniae isolate 1433
  MIC: 2 µM (≈ 1.11 µg/mL)
[15]; K. pneumoniae isolate 1434
  MIC: 5 µM (≈ 2.78 µg/mL)
[15]; K. pneumoniae isolate 1440
  MIC: 3 µM (≈ 1.67 µg/mL)
[15]; K. pneumoniae isolate 1441
  MIC: 2 µM (≈ 1.11 µg/mL)
[15]; purified compound, Table 1
  MIC: 1.62 µM (≈ 0.902 µg/mL)
[15]; panel of K. pneumoniae clinical isolates
  concentration inhibiting 90% of isolates: 5 µM
